Measurements: patent publication US20250129067A1 (Progentos Therapeutics, Inc., priority 2021, published 2025)
Where two headings read alike, the source gives them in different places.

Key:
[1] = test system: Oligodendrocyte progenitor cells (OPCs); assay: In vitro OPC differentiation assay, MBP expression (immunocytochemistry)
[2] = test system: GPR17+ cells (newly differentiated oligodendrocytes); assay: In vivo OPC differentiation, GPR17+ cells in brain; details: Mus musculus, po, 24 h, read-out: GPR17 Fold Induction (Over Vehicle)
Method: The ability of newly constructed compounds to drive OPC differentiation and myelination in vivo was tested. The ability of these compounds to drive OPC differentiation in vivo was tested using GPR17 as an indicator of newly differentiated oligodendrocytes.
Compounds were delivered PO or IP either QD or BID. Mice were dosed once, transiently, or continuously through the treatment period, which ranged from 1-3 days.
Mice were euthanized by isoflurane exposure and transcardially perfused with 14 mL of PBS (Sigma Cat #P4417-50TAB) followed by 22 mL of 3.2% paraformaldehyde in PBS. The brains were removed and postfixed for a minimum of 24 hours in 20 mL of 3.2% paraformaldehyde.
50-micron floating sections were cut using a Leica VT1200S vibratome. Every 24th section, extending through the antero-posterior extent of the brain, was stained. The selected brain sections were washed three times in PBS for 3 minutes each. The floating sections were incubated in the primary antibodies (see Table 10, below) diluted in blocking solution overnight at room temperature on a shaker. […] The next day, the sections were again washed three times in PBS for 3 minutes each and then incubated in the secondary antibodies diluted in blocking solution for 2 hours at room temperature on a shaker. After incubation, the sections were washed three times in PBS for 3 minutes each and mounted on a slide to be imaged using the Olympus Slide Scanner VS200.
The images were analyzed using a custom protocol developed using Visiopharm software to count GPR17+ cells. Cells were considered GPR17+ if they contained an Olig2 positive nucleus, and intense GPR 17 staining that filled their processes. Statistical analysis was done using one-way ANOVA with multiple comparison in GraphPad Prism software.

[3] = biological target: PDGFRα (Homo sapiens (Human), UniProt P16234); assay: PDGFRα kinase enzyme assay (Promega PDGFRα Kinase Enzyme System, ADP-Glo); type: biochemical; details: 150 uM ATP
Chain of PDGFRα (P16234 24-1089): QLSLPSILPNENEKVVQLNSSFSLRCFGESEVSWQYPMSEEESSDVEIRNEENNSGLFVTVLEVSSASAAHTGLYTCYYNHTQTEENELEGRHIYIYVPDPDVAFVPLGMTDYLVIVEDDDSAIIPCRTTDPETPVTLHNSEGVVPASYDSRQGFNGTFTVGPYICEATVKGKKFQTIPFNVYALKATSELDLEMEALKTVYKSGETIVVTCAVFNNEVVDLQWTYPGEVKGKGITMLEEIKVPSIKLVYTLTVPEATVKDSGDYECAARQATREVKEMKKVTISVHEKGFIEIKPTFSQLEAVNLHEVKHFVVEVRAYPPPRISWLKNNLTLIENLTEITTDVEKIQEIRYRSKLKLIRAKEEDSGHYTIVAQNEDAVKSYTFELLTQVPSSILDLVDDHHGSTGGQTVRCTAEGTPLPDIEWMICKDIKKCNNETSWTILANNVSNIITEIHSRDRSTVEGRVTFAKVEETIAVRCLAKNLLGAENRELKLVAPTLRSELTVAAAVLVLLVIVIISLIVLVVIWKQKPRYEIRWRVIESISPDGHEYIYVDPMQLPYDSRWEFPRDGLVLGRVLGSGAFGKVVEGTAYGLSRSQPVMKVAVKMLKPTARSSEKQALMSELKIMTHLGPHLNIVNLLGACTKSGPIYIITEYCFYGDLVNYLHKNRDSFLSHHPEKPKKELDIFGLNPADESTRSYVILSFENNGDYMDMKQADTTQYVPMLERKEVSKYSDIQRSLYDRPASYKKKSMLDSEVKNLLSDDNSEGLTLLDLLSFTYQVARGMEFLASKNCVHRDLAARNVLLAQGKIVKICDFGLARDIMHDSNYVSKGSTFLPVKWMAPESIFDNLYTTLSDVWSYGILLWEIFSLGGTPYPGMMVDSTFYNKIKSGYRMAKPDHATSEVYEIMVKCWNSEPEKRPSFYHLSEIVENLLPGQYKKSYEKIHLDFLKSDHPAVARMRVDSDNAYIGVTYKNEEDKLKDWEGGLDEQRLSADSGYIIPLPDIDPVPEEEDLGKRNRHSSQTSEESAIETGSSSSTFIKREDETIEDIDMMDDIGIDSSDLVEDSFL
Method in brief: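 Purified PDGFRα protein (20 ng) reacted with test compound per the Promega kinase system protocol. ADP formed was measured by ADP-Glo luminescence against a standard curve, giving IC50.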

[4] = test system: Oligodendrocyte progenitor cells (OPCs); assay: In vitro OPC differentiation assay, GPR17 expression (immunocytochemistry); details: 72 hours; for GPR17 Fold Induction (Over Vehicle; 3 μM): 3 μM (10× concentration, final 0.3 μM)
[5] = 72 hours of treatment, fold change over vehicle
[6] = 11-point dose response, 10,000 nM to 0.169 nM, BLQ = below limit of quantitation, read-out: IC50 Values on PDGFRα Kinase Inhibition, IC50

Row | SMILES | MBP Fold Induction (Over vehicle) [1, 5] | IC50 [3, 6] | GPR17 Fold Induction (Over Vehicle; 3 μM) ([4]; fold change over vehicle) | GPR17 Fold Induction (Over Vehicle; 5 μM) ([4]; 5 μM (10× concentration, final 0.5 μM), fold change over vehicle) | MBP Fold Induction (Over vehicle) ([1]; primary rat OPCs, 72 hours, 3 uM (10x; final 0.3 uM per method), percent MBP+ cells as fold change over vehicle) | IC50 ([3]; 20 ng purified PDGFRα, Poly (Glu4Tyr1) substrate, two hours, 11-point dose response, read-out: IC50 Values on PDGFRα Kinase Inhibition) | GPR17 Fold Induction (Over Vehicle; 5 μM) ([4]; primary rat OPCs, 5 μM (10x; final 0.5 μM per method), percent GPR17+ cells as fold change over vehicle) | fold induction at 3.3 mg/kg [2]
1 | Cn1cc(-c2ccc3c(N4CCN(C(=O)CCc5ccccc5)CC4)cnn3c2)cn1 [Compound 1, 6-(1-methyl-1H-pyrazol-4-yl)-3-[4-(3-phenylpropanoyl)piperazin-1-yl]pyrazolo[1,5-a]pyridine] | 9.82 | 4010 nM | 5.25 | 2.94 |  |  |  | 1.06
2 | CC(C)(C)OC(=O)N1CCN(c2cnn3cc(-c4cnn(C5CCOCC5)c4)ccc23)CC1 [Compound 235] | 10.35 | 467 nM | 9.32 |  |  |  |  | 
3 | Cn1cc(-c2ccc3c(N4CCN(c5ncc(C(O)c6ccccc6)o5)CC4)cnn3c2)cn1 (centres unmarked) [Compound 248, (2-(4-(6-(1-methyl-1H-pyrazol-4-yl)pyrazolo[1,5-a]pyridin-3-yl)piperazin-1-yl)oxazol-5-yl)(phenyl)methanol] | 16.04 | 1190 nM | 3.90 |  |  |  |  | 
4 | c1ccc(Cc2cnc(N3CCN(c4cnn5cc(-c6cn[nH]c6)ccc45)CC3)nc2)cc1 [Compound 255, 3-[4-(5-benzylpyrimidin-2-yl)piperazin-1-yl]-6-(1H-pyrazol-4-yl)pyrazolo-[1,5-a]pyridine] | 2.58 | 1140 nM | 8.56 |  |  |  |  | 
5 | C=C(c1ccc(F)cc1)c1cnc(N2CCN(c3cnn4cc(-c5cnn(C)c5)ccc34)CC2)nc1 [Compound 256, 3-(4-(5-(1-(4-fluorophenyl)vinyl)pyrimidin-2-yl)piperazin-1-yl)-6-(1-methyl-1H-pyrazol-4-yl)pyrazolo[1,5-a]pyridine] | 8.70 | 3200 nM | 4.15 |  |  |  |  | 
6 | COC(c1ccc(F)cc1)c1cnc(N2CCN(c3cnn4cc(-c5cnn(C)c5)ccc34)CC2)nc1 (centres unmarked) [Compound 263, 3-(4-(5-((4-fluorophenyl)(methoxy)methyl)pyrimidin-2-yl)piperazin-1-yl)-6-(1-methyl-1H-pyrazol-4-yl)pyrazolo[1,5-a]pyridine] | 12.61 | 517 nM | 5.98 |  |  |  |  | 

Now from value to compound, other results behind:

Row | MBP Fold Induction (Over vehicle) [1, 5] | IC50 [3, 6] | GPR17 Fold Induction (Over Vehicle; 3 μM) ([4]; fold change over vehicle) | GPR17 Fold Induction (Over Vehicle; 5 μM) ([4]; 5 μM (10× concentration, final 0.5 μM), fold change over vehicle) | MBP Fold Induction (Over vehicle) ([1]; primary rat OPCs, 72 hours, 3 uM (10x; final 0.3 uM per method), percent MBP+ cells as fold change over vehicle) | IC50 ([3]; 20 ng purified PDGFRα, Poly (Glu4Tyr1) substrate, two hours, 11-point dose response, read-out: IC50 Values on PDGFRα Kinase Inhibition) | GPR17 Fold Induction (Over Vehicle; 5 μM) ([4]; primary rat OPCs, 5 μM (10x; final 0.5 μM per method), percent GPR17+ cells as fold change over vehicle) | SMILES | fold induction at 3.3 mg/kg [2]
7 | 5.22 | 26.8 nM | 6.72 |  |  |  |  | CC(=O)OC(c1ccc(F)cc1)c1cnc(N2CCN(c3cnn4cc(-c5cnn(C)c5)ccc34)CC2)nc1 (centres unmarked) [Compound 264, (4-fluorophenyl)(2-(4-(6-(1-methyl-1H-pyrazol-4-yl)pyrazolo[1,5-a]pyridin-3-yl)piperazin-1-yl)pyrimidin-5-yl)methyl acetate] | 
8 | 14.20 | 2.69 nM | 4.88 |  |  |  |  | C[C@@H](OC(=O)N1CCN(c2cnn3cc(-c4cnn(C)c4)ccc23)CC1)c1ccc(F)c(F)c1 [Compound 266, (1R)-1-(3,4-difluorophenyl]ethyl 4-[6-(1-methyl-1H-pyrazol-4-yl)pyrazolo[1,5-a]pyridin-3-yl]piperazine-1-carboxylate] | 
9 |  |  |  |  | 6.11 | 10.8 nM | 7.10 | CN(C[C@@H]1COCCO1)S(=O)(=O)Nc1ccc2ccc3ncc(-c4cnn(C)c4)cc3c(=O)c2c1 [MK 2461, reference compound] | 
